# Source: US20240425512A1, “NITROGEN-CONTAINING HETEROCYCLIC COMPOUND, PHARMACEUTICAL COMPOSITION THEREOF AND APPLICATION THEREOF” (280 Bio, Inc., priority 2023, published 2024)
# Where two headings read alike, the source gives them in different places.
# Key:
# [1] = tested on: SW620 colon cancer cell with KRAS G12V mutation; assay: Proliferation inhibition on RAS cell lines measured by CTG, SW620; assay type: cell-based; conditions: Table 1, SW620 cells, incubated for 6 days, CellTiter Glo, read-out: IC50 (SW620 ^c)
# Source text: (§1) NCI-H358 is a human non-small cell lung cancer cell line with KRAS G12C mutation; AGS is a gastric cancer cell line with KRAS G12D mutation; SW620 is a colon cancer cell with KRAS G12V mutation; NCI-H460 is a non-small cell lung cancer cell with KRAS Q61H mutation; MKN1 is a wild-type gastric cancer cell with KRAS-amplified; LS513 is a colon cancer cell with KRAS G12D mutation; LoVo is a colon cancer cell with KRAS G13D mutation; NCI-H441 is a lung cancer cell with KRAS G12V mutation, and Capan-2 is a pancreatic cancer cell with KRAS G12V mutation.
# (§2) The proliferation inhibitory effect of the compounds on various mutations was evaluated by determining the proliferation inhibitory activity of the compounds on these cell lines.
# (§3) The assay was conducted on either 384-well plates or 96-well plates. The procedures are as follows:
# (§4) The cell suspensions were added to 384- or 96-well plates (384-well plate: 50 μL; 96-well plate: 100 μL) except for peripheral wells. The plates were placed in a carbon dioxide incubator overnight. NCI-H358, AGS, NCI-H460, MKN-1, LS513, LoVo, and NCI-H441 were placed in a 5%, 370 carbon dioxide incubator overnight, and SW620 was placed in a 0%, 370 carbon dioxide incubator overnight. The HPD300 micro-dosing instrument was used to add the corresponding concentration of compound to each well (9-10 concentration gradients of compound were obtained by 3-fold dilution). Cell plates were incubated in a carbon dioxide incubator for 5-6 days. NCI-H358, AGS, NCI-H460 and MKN-1 were incubated at 5%, 37° incubator and SW620 was incubated at 0%, 370 incubator. On the day of plate measurement, the 384- or 96-well plates were first equilibrated at room temperature for 10-30 min, then CellTiter Glo reagent (384-well plate: 25 μL; 96-well plate: 100 μL) was added to the 384- or 96-well plate, shaken for 10 min away from light, and incubated for 10 min. The plates were placed into Victor NIVO or ENVIDION reader plates, and XLFit was utilized to plot the pharmacodynamic inhibition curve and calculate the IC50 value. “IC50>10 μM” is denoted by “*”, “10 μM≥IC50≥1 μM” is denoted by “**”, and “1 μM≥IC50>100 nM” is denoted by “***”, “IC50<100 nM” is denoted by “****”
# [2] = tested on: NCI-H441 lung cancer cell with KRAS G12V mutation; assay: Proliferation inhibition on RAS cell lines measured by CTG, NCI-H441; assay type: cell-based; conditions: NCI-H441 cells, incubated for 6 days
# Source text: as §1, §2, §3, §4
# [3] = tested on: AGS gastric cancer cell line with KRAS G12D mutation; assay: Proliferation inhibition on RAS cell lines measured by CTG (CellTiter Glo), AGS; assay type: cell-based; conditions: Table 1, AGS cells, incubated for 5 days
# Source text: as §1, §2, §3, §4
# [4] = tested on: LS513 colon cancer cell with KRAS G12D mutation; assay: Proliferation inhibition on RAS cell lines measured by CTG, LS513; assay type: cell-based; conditions: LS513 cells, incubated for 6 days, read-out: IC50 (LS513^f)
# Source text: as §1, §2, §3, §4
# [5] = tested on: LoVo colon cancer cell with KRAS G13D mutation; assay: Proliferation inhibition on RAS cell lines measured by CTG, LoVo; assay type: cell-based; conditions: LoVo cells, incubated for 6 days, read-out: IC50 (LoVo^g)
# Source text: as §1, §2, §3, §4
# [6] = Pharmacokinetic study in mice after oral administration; assay type: in vivo; conditions: mouse, 30 mg/kg, male C57BL/6J mice, plasma
# Description: (§5) After intravenous and oral administration in male C57BL/6J mice (6-8 weeks), plasma samples were collected through the orbital venous plexus at 8 time points (5 min, 15 min, 30 min, 1 h, 2 h, 4 h, 7 h, 24 h), and the collected blood samples were transferred to microcentrifuge tubes containing EDTA-K2 anticoagulant, and centrifuged at 4° C., 4,000 g. After 5 min, the supernatant was taken and stored in a refrigerator at −75° C. ±15° C. LC-MS/MS was used to detect the concentrations of the compounds in the plasma at different time points, and the relevant pharmacokinetic parameters […] were calculated using WinNonlin software.
# [7] = tested on: NCI-H460 non-small cell lung cancer cell with KRAS Q61H mutation; assay: Proliferation inhibition on RAS cell lines measured by CTG, NCI-H460; assay type: cell-based; conditions: Table 1, NCI-H460 cells, incubated for 6 days, CellTiter Glo, read-out: IC50 (NCI-H460 ^d)
# Source text: as §1, §2, §3, §4
# [8] = Pharmacokinetic study in mice after intravenous administration; assay type: in vivo; conditions: mouse, 5 mg/kg, male C57BL/6J mice, plasma
# Description: as §5
# [9] = tested on: MKN1 wild-type gastric cancer cell with KRAS-amplified; assay: Proliferation inhibition on RAS cell lines measured by CTG, MKN1; assay type: cell-based; conditions: Table 1, MKN1 cells, incubated for 6 days, CellTiter Glo, read-out: IC50 (MKN1 ^e)
# Source text: as §1, §2, §3, §4
# [10] = tested on: NCI-H358 human non-small cell lung cancer cell line with KRAS G12C mutation; assay: Proliferation inhibition on RAS cell lines measured by CTG, NCI-H358; assay type: cell-based; conditions: Table 1, NCI-H358 cells, incubated for 6 days, CellTiter Glo, read-out: IC50 (H358 ^b)
# Source text: as §1, §2, §3, §4
# [11] = tested on: Capan-2 pancreatic cancer cell with KRAS G12V mutation; assay: Proliferation inhibition on RAS cell lines measured by CTG, Capan-2; assay type: cell-based; conditions: Homo sapiens, 144 h; Table 2; Capan-2 cells, incubated for 6 days, CellTiter Glo; read-out: IC50 (Capan-2^i)
# Source text: as §1, §2, §3, §4
# [12] = Homo sapiens, NCI-H441, 144 h, Table 1, CellTiter Glo
# [13] = Homo sapiens, LS-513, 144 h, Table 1, CellTiter Glo
# [14] = Homo sapiens, LoVo, 144 h, Table 1, CellTiter Glo
# [15] = Homo sapiens, LS-513, 144 h, Table 2, CellTiter Glo
structure (smiles),measurement,setting,value
C#Cc1c(F)ccc2cc(O)cc(-c3ncc4c(N5CCCCCN5)nc(OC[C@@]56CCCN5C[C@H](F)C6)nc4c3F)c12 [Compound 4],IC50,"[1]; Homo sapiens, SW-620, 144 h",< 100 nM
same,IC50,"[2]; Homo sapiens, NCI-H441, 144 h, Table 1, numeric value",3.6 nM
same,IC50,[2]; [12],< 100 nM
same,IC50,"[3]; Homo sapiens, 120 h",< 100 nM
same,IC50,"[4]; Homo sapiens, LS-513, 144 h, Table 1, numeric value",3.6 nM
same,IC50,[4]; [13],< 100 nM
same,IC50,"[5]; Homo sapiens, LoVo, 144 h, Table 1, numeric value",7.8 nM
same,IC50,[5]; [14],< 100 nM
same,AUC(0-inf),[6],10400 ng·h/mL
same,AUC(0-t),[6],10400 ng·h/mL
same,Cmax,[6],2290 ng/mL
same,Tmax,[6],4 h
same,half-life,[6]; 0.1% Tween 80 + 0.5% MC in water,113 min
same,IC50,"[7]; Homo sapiens, 144 h",100 to 1000 nM
same,AUC(0-inf),[8],24300 ng·h/mL
same,AUC(0-t),[8],24300 ng·h/mL
same,C0,[8],96.1 µg/mL
same,clearance,[8],3.43 mL/min/kg
same,half-life,[8]; 5% DMSO + 10% Solutol HS15 + 85% (20% HP-β-CD in water),158 min
same,Vd,[8]; read-out: Vss,0.205 L/kg
same,IC50,"[9]; Homo sapiens, MKN-1, 144 h",< 100 nM
same,IC50,"[10]; Homo sapiens, 144 h",< 100 nM
C#Cc1c(F)ccc2cc(O)cc(-c3ncc4c(N5CCOCCN5)nc(OC[C@@]56CCCN5C[C@H](F)C6)nc4c3F)c12 [Compound 7],IC50,[1],< 100 nM
same,IC50,[3],< 100 nM
same,IC50,[7],1000 to 10000 nM
same,IC50,[9],100 to 1000 nM
same,IC50,[10],< 100 nM
CCc1c(F)ccc2cc(O)cc(-c3ccc4c(N5CCCCCN5)nc(OC[C@@]56CCCN5C[C@H](F)C6)nc4c3)c12 [Compound 27],IC50,[11],1000 to 10000 nM
same,IC50,[4]; [15],100 to 1000 nM
C#Cc1cccc2cc(O)cc(-c3ncc4c(N5CCCCCN5)nc(OC[C@@]56CCCN5C[C@H](F)C6)nc4c3F)c12 [Compound 36],IC50,[11],< 100 nM
same,IC50,[4]; [15],< 100 nM
C#Cc1c(F)ccc2cccc(-c3ncc4c(N5CCCCCN5)nc(OC[C@@]56CCCN5C[C@H](F)C6)nc4c3F)c12 [Compound 11],IC50,[2]; [12],100 to 1000 nM
same,IC50,[4]; [13],< 100 nM
same,IC50,[5]; [14],100 to 1000 nM
CCc1c(F)ccc2cc(O)cc(-c3ncc4c(N5CCCCCO5)nc(OC[C@@]56CCCN5C[C@H](F)C6)nc4c3F)c12 [Compound 10],IC50,[2]; [12],100 to 1000 nM
same,IC50,[4]; [13],< 100 nM
same,IC50,[5]; [14],100 to 1000 nM
CCc1c(F)ccc2cc(O)cc(-c3ncc4c(N5CCCCCN5)nc(OCC5(CN(C)C)CC5)nc4c3F)c12 [Compound 28],IC50,[11],100 to 1000 nM
same,IC50,[4]; [15],< 100 nM
Oc1cc(-c2ncc3c(N4CCCCCN4)nc(OC[C@@]45CCCN4C[C@H](F)C5)nc3c2F)c2c(Cl)cccc2c1 [Compound 35],IC50,[11],100 to 1000 nM
same,IC50,[4]; [15],< 100 nM
C#Cc1c(F)ccc2cc(O)cc(-c3ncc4c(N5CCCCCN5)nc(OCC5(CN6CCOCC6)CC5)nc4c3F)c12 [Compound 29],IC50,[11],< 100 nM
same,IC50,[4]; [15],< 100 nM
"CCc1c(F)ccc2cc(O)cc(-c3ncc4c(N5CC(C)(O)CCN5)nc(OCC56CCCN5CC(F)C6)nc4c3F)c12 (single isomer, unassigned) [Compound 2-1]",IC50,[1],< 100 nM
same,IC50,"[2]; Table 1, CellTiter Glo, read-out: IC50 (NCI-H441^h)",100 to 1000 nM
same,IC50,[3],< 100 nM
same,IC50,"[4]; Table 1, CellTiter Glo",< 100 nM
same,IC50,"[5]; Table 1, CellTiter Glo",< 100 nM
same,IC50,[7],1000 to 10000 nM
same,IC50,[9],< 100 nM
same,IC50,[10],< 100 nM
C#Cc1c(F)ccc2cc(O)cc(-c3ncc4c(N5CCCCCO5)nc(OC[C@@]56CCCN5C[C@H](F)C6)nc4c3F)c12 [Compound 9],IC50,[2]; [12],< 100 nM
same,IC50,[4]; [13],< 100 nM
same,IC50,[5]; [14],< 100 nM
CCc1c(F)ccc2cc(O)cc(-c3ncc4c(N5CCOCCN5)nc(OC[C@@]56CCCN5C[C@H](F)C6)nc4c3F)c12 [Compound 8],IC50,"[1]; Homo sapiens, SW-620, 144 h",< 100 nM
same,IC50,"[3]; Homo sapiens, 120 h",< 100 nM
same,IC50,"[7]; Homo sapiens, 144 h",100 to 1000 nM
same,IC50,"[9]; Homo sapiens, MKN-1, 144 h",< 100 nM
same,IC50,"[10]; Homo sapiens, 144 h",< 100 nM
C#Cc1c(F)ccc2cc(O)cc(-c3ccc4c(N5CCCCCN5)nc(OC[C@@]56CCCN5C[C@H](F)C6)nc4c3)c12 [Compound 26],IC50,[11],1000 to 10000 nM
same,IC50,[4]; [15],100 to 1000 nM
C#Cc1c(F)ccc2cc(O)cc(-c3ncc4c(N5CCCCCN5)nc(OCC56CCCN5CCC6)nc4c3F)c12 [Compound 25],IC50,[11],100 to 1000 nM
same,IC50,[4]; [15],< 100 nM
C#Cc1c(F)ccc2cc(O)cc(-c3nc(OC)c4c(N5CCCCCN5)nc(OC[C@@]56CCCN5C[C@H](F)C6)nc4c3F)c12 [Compound 33],IC50,[11],100 to 1000 nM
same,IC50,[4]; [15],< 100 nM
CCc1c(F)ccc2cc(O)cc(-c3ncc4c(N5CCCCCN5)nc(OC[C@@]56CCCN5C[C@H](F)C6)nc4c3F)c12 [Compound 3],IC50,"[1]; Homo sapiens, SW-620, 144 h",< 100 nM
same,IC50,"[3]; Homo sapiens, 120 h",< 100 nM
same,IC50,"[7]; Homo sapiens, 144 h",100 to 1000 nM
same,IC50,"[9]; Homo sapiens, MKN-1, 144 h",< 100 nM
same,IC50,"[10]; Homo sapiens, 144 h",< 100 nM
